Results reported in ChEMBL document CHEMBL3507680, “University of Dundee, Gates Library screen for HepG2 cell viability”.

test: Human HepG2 cell viability assay in 384 well format; type: toxicity, cell-based; set-up: dose 125 nL, time 70.5 hour; cytotoxicity at 70.5 h: concentration not given beside the values; conditions: HepG2 cells, read-out: Inhibition

Row | Structure (SMILES) | cytotoxicity at 70.5 h [%]
1 | COCCN1C[C@@H]2[C@@H](OC)CCN(Cc3ccncc3)[C@@H]2C1 | -0.354
2 | CN(C)C(=O)CN1C[C@@H]2CC[C@H](C1)N(C(=O)Cc1ccccc1Cl)C2 | 8.11
3 | O=C(NC[C@H]1CC[C@H](c2ccnc3ncnn32)CC1)c1ccccn1 | -6.58
4 | COc1cccc2c1N(Cc1noc(C(C)(C)C)n1)CCC2 | 18.5
5 | Cc1nccc(-c2ccccc2)c1C(=O)N1CC[C@](C)(O)[C@H](C)C1 | 13.7
6 | O=C(NCCn1ccnc1)c1cc(Br)c[nH]1 | -8.18
7 | Cc1cc(C(=O)N(C)C)c2c(Br)cccc2n1 | -10.8
8 | CCn1ccnc1CN1CCCN(C(=O)COC2CCCC2)CC1 | 22.5
9 | O=C(c1cccc(S(=O)(=O)NCCc2cscn2)c1)N1CCOCC1 | -1.05
10 | OCCN1CCN(CC(O)c2ccc(C(F)(F)F)cc2)CC1 (stereo not drawn) | 33.3
11 | Cc1ncsc1CCN(C)C(=O)CN1CCCCC1=O | 12.5
12 | CC(NC(=O)NCCCc1n[nH]c(N)c1C#N)c1ccccc1F (stereo not drawn) | 0.683
13 | Cc1cnn(C(C)C2CC2)c1NC(=O)c1ncccc1O (stereo not drawn) | 9.8
14 | CCNC(=O)N1CCC(=Cc2ccccc2)CC1 | 1.05
15 | O=C1NCCN1CCNCC1(O)CCCN(CCC2CCCCC2)C1=O (stereo not drawn) | -4.14
16 | CCOc1cc(C)nc(N2CCN(C(=O)c3cc[nH]n3)CC2)n1 | -3.5
17 | CCOCc1ncn2c1CN(S(=O)(=O)c1cccs1)CCC2 | 12.5
18 | O=C(c1ccnnc1)N1C[C@@H](OCC2CCCC2)[C@H]2OCCC[C@H]21 | -3.04
19 | COc1ccccc1CN1C(=O)O[C@@H]2CN(c3nc(C)cc(C)n3)C[C@@H]21 | -3.9
20 | Cc1nc(CN2CCN(C(=O)CC(C)(C)c3ccccc3)CC2)no1 | -5.37
21 | CC(C)Oc1ccc(CN2CCCC(N3CCCC3)C2)cc1CO (stereo not drawn) | 2.77
22 | Cc1ccc(-c2ccc(C(=O)NCCC(=O)N(C)C)c(F)c2)cc1 | -6.22
23 | N#Cc1ccc(NCC(O)c2ccco2)c(C(F)(F)F)c1 (stereo not drawn) | -6.87

Row | Structure (SMILES) | cytotoxicity at 70.5 h [%]
24 | Clc1snnc1CN1CCOC(CNc2cccnn2)C1 (stereo not drawn) | -21.7
25 | CN(C)c1nc(N2CCCC2)nc2c1CCN(Cc1nccn1C)CC2 | 8.52
26 | c1cn(CCc2c[nH]cn2)c(-c2cc(CN3CCCC3)cs2)n1 | -9.06
27 | O=C(NCCc1cc(F)ccc1F)NCC(O)C1CC1 (stereo not drawn) | 11.6
28 | CCS(=O)(=O)N1CCC2(CC(=O)N(c3cccc(C)c3)C2)C1 (stereo not drawn) | -4.67
29 | CC(C)=Cc1c(-c2ccccc2)ncn1CCS(C)(=O)=O | 7.25
30 | c1ccc(CCCN2CC(n3cccn3)C2)cc1 | -2.22
31 | CCC(O)Cn1nc(CCSC)nc1-c1ccc2[nH]ccc2c1 (stereo not drawn) | 1.48
32 | CCn1nnc2c1C(COC)CN(Cc1ccsc1)C2 (stereo not drawn) | -0.304
33 | Cc1nc(CN2CCC(O)(c3ccccc3F)CC2)c2ccccn12 | 11.2
34 | N#Cc1ccc(CN2CCN(C(=O)CCn3cncn3)CC2)cc1 | 6.05
35 | Cc1ccc(C(=O)N2CCn3cc(CN4CCCCC4)nc3C2)o1 | 35.2
36 | O=C(NCc1ccc2c(c1)OCCO2)N1CCC(CO)CC1 | 4.7
37 | c1cncc(C2COC3(CCN(Cc4nccs4)CC3)C2)c1 (stereo not drawn) | -9.69
38 | COc1cccc(N2CCN(CC[C@H](O)c3ccccc3)CC2=O)c1 | -10.7
39 | Cc1csc(CCNC(=O)C2CCN(CC(N)=O)CC2)n1 | 8.97
40 | CNC(=O)N1CC[C@@H]2CN(Cc3ccccc3)S(=O)(=O)[C@@H]2CC1 | -6.18
41 | OCC(O)CSCc1cn(-c2ccc(Cl)c(Cl)c2)nn1 (stereo not drawn) | -5.28
42 | CC(C(=O)N1CCCC1)N1CCCN(C(=O)Oc2ccccc2)CC1 (stereo not drawn) | -10.6
43 | CNc1cc(C)nc(C2CN(Cc3ccc(Cl)cn3)CCO2)c1 (stereo not drawn) | -5.55
44 | CN(C)C(=O)C1CCN(C2CCN(CC3CC3)CC2)CC1 | -5.51
45 | O=C(c1ccc(S(=O)(=O)N2CCSCC2)cc1)N1CCC(O)C1 (stereo not drawn) | -17.3
46 | O=C(NC1CC1)C1CCN(c2cccc(C(F)(F)F)n2)CC1 | -1.37

Row | Structure (SMILES) | cytotoxicity at 70.5 h [%]
47 | O=C(Cc1ccsc1)N1C[C@@H]2OCCN(CC3CCCO3)[C@@H]2C1 (stereo partly drawn) | 7.05
48 | O=C(NCCc1coc(-c2ccc(F)cc2)n1)NCC1CCOC1 (stereo not drawn) | 20.9
49 | O=C(Cc1ccsc1)N1CCN(CC2CC2)c2ncccc2C1 | -14
50 | Cc1ccnc(N2CCC(C(N)=O)CC2)n1 | 32.9
51 | CC(=O)NCC(=O)N1Cc2nccn2CC(CN2CCCC2)C1 (stereo not drawn) | 0.0844
52 | Cn1ccc(C2CCCCCN2C(=O)c2cccnc2)n1 (stereo not drawn) | -2.46
53 | O=C(C1CCCC1)N1CCO[C@H]2[C@H](OCC3CCOCC3)CC[C@@H]21 | -5.12
54 | COc1cc(N2C[C@H]3CCN(CCN4CCCC4)C[C@H]3C2)ncn1 | -1.14
55 | CC(NCc1ccncc1)c1cc2c(cc1Br)OCCO2 (stereo not drawn) | -4.83
56 | CCc1nc(C)ncc1C(=O)N1CCOC(c2nc(C)n[nH]2)C1 (stereo not drawn) | -0.337
57 | COCc1nc2cc(NCc3nc(C)cs3)ccc2o1 | -2.56
58 | Cc1cc(CN(C)C(C(=O)O)c2ccc(C(C)(C)C)cc2)on1 (stereo not drawn) | -5.92
59 | Cc1nn(-c2ccccc2)cc1C(=O)N1CCCN2CCCC2C1 (stereo not drawn) | 3.01
60 | CC(C)Oc1cc(N2CCC(N3CCC(O)CC3)CC2)nc(N)n1 | -7.04
61 | Cc1ccc(-c2cnnc(N3CCCC3c3nonc3C)n2)o1 (stereo not drawn) | -3.66
62 | CCNC(=O)NC(=O)CNC(C)(C)c1ccc2c(c1)OCCO2 | -5.69
63 | COc1ccc(-n2ncc3c2NC(=O)CSC3CC(C)C)cc1 (stereo not drawn) | -19.5
64 | CN1CCC(O)(CCNC(=O)[C@@]23CNC[C@@H]2CN(C2CCCC2)C3)CC1 | 11.4
65 | CSc1nc2ccsc2c(=O)n1CC(=O)NC1CCCCC1 | -6.83
66 | COCCC(Cc1cccc(Br)c1)C(=O)NCC(N)=O (stereo not drawn) | -9.6
67 | CCC(C)(NCC(=O)NC(C)C)c1nc(C)cs1 (stereo not drawn) | -3.79
68 | CN(C)c1nc2n(c(=O)n1)CCN2C(=O)Nc1ccc(Cl)cc1 | -6.29
69 | C/C=C(/C)C(=O)NS(=O)(=O)c1ccc(C(F)(F)F)cc1 | 0.976

Row | Structure (SMILES) | cytotoxicity at 70.5 h [%]
70 | COc1ccc(S(=O)(=O)NCC(O)c2sccc2C)cc1Cl (stereo not drawn) | 0.182
71 | CC1=N[C@@]2(CC[C@@H]3CN(Cc4ccccc4)C[C@@H]32)C(=O)N1CC1CC1 | -21.6
72 | CCOc1ccc(C(=O)N2CCCS2(=O)=O)cc1OC | -4.2
73 | COCc1noc(C2(c3ccc(Br)cc3)CCOCC2)n1 | -10.1
74 | O=S(=O)(c1ccc2c(c1)CCC2)N1CCCC(Cn2cncn2)C1 (stereo not drawn) | 0.224
75 | Cc1cc(-c2nccn2CCN2CCCCC2CO)oc1C (stereo not drawn) | -5.85
76 | COc1c(CNC2CCOc3c(Cl)cccc32)c(C)nn1C (stereo not drawn) | 12.2
77 | Cn1c(=O)ccn(CC(=O)Nc2cccnc2)c1=O | 12.6
78 | CCc1nnc(CNC(=O)c2cc3c(nc2OC)CCC3)s1 | 2.77
79 | CCOc1c(Br)cc(CNCCc2nnc3n2CCCCC3)cc1OC | -10.5
80 | CCS(=O)(=O)N1CCc2cc(C(=O)NC)c(NCC(C)C)nc2CC1 | -4.65
81 | CC(C)c1noc(C(C)Nc2nccc(CCC(F)(F)F)n2)n1 (stereo not drawn) | -10.8
82 | COc1cc(C2(C(=O)NC3CCC4(CC3)OCCO4)CC2)ccc1C | -4.1
83 | CS(=O)(=O)N1CCO[C@H]2[C@@H](Oc3ncccc3F)CC[C@@H]21 | -5.41
84 | CN(C)C[C@H]1OC[C@@H]2CCN(C(=O)c3cccn3C)C[C@@H]21 | -7.55
85 | CCn1nc(C)c(CNC(=O)C2COc3ccccc3C2)c1C (stereo not drawn) | -8.01
86 | CSc1ccc(NC(=O)Cn2cc(NC(C)=O)cn2)cc1 | -7.71
87 | CNC(=O)[C@H]1C[C@@H]2CN(S(=O)(=O)Cc3ccccc3)C[C@@H]2N1C | -3.87
88 | CCNC(=O)CN(CC)Cc1nc2c(F)cccc2n1CC | 21.7
89 | COc1cccc(CN2CC(O)CN(C(=O)C3CCC3)CC2=O)c1OC (stereo not drawn) | -4.14
90 | O=C(Nc1cnccn1)[C@@H]1C[C@H]2OCC[C@H]2N(Cc2ccsc2)C1 | -7.42
91 | CCOc1ccc(S(=O)(=O)NCCc2ccc(N(C)C)cc2)cc1F | -1.54
92 | Cc1noc(C(C)N2CCN(CC(=O)N3CCOCC3)CC2)n1 (stereo not drawn) | 24

Row | Structure (SMILES) | cytotoxicity at 70.5 h [%]
93 | CCCN1CCN(C(=O)c2cnccc2C)[C@H]2CS(=O)(=O)C[C@H]21 | -3.96
94 | O=C(CCc1cncc(F)c1)NS(=O)(=O)c1ccc(F)cc1F | 8.87
95 | O=C(Cc1cccc(F)c1)NCCNCc1ccc2c(c1)CCO2 | 6.87
96 | Cc1cc(C(=O)NCCN2CCCCCC2)nn1C(C)(C)C | -4.89
97 | CCCC(NC(=O)NCc1cccc(N(C)C)n1)c1ccccn1 (stereo not drawn) | -18.8
98 | CCc1[nH]c2c(CNc3nccc(N)n3)cc(C)cc2c1C | 23.9
99 | Cc1cc2c(c(-c3cnccn3)c1)OC(CN)C2 (stereo not drawn) | -6.44
100 | NC(=O)CSCCC(=O)N1CCCC1c1ccsc1 (stereo not drawn) | -6.66
101 | O=S(=O)(c1cccnc1)N1C[C@@H]2CC[C@H](C1)N(Cc1ccccc1)C2 | -6.7
102 | Cc1c(Cl)cccc1NC(=O)N1CCC2(CC1)NC(=O)CC2C(=O)O (stereo not drawn) | 1.01
103 | FC(F)(F)Cn1nnnc1SCCN1CCCCC1 | -7.69
104 | CN(Cc1ccsc1)C(=O)Nc1ccc(S(C)(=O)=O)nc1 | 2.4
105 | CCc1nnc(Nc2cccc(C3CCN(C(C)=O)CC3)n2)s1 | 44.9
106 | CCc1nnc(SCC(=O)Nc2cc(C(C)(C)C)nn2C)[nH]1 | -5.12
107 | CC(C)N1CCC2(CCNCC2)C1=O | -13
108 | N#Cc1cc(F)c(NCc2ccc(F)cc2)c(F)c1 | 15.5
109 | CCN(Cc1cnn(CC)c1)C(=O)CN1C(=O)CCc2ccccc21 | -4.74
110 | Cc1n[nH]c(C)c1C1CCCN1C(=O)c1cc(Br)c[nH]1 (stereo not drawn) | 12.3
111 | CN(C)CCN(C)S(=O)(=O)CC1CCOCC1 | -7.41
112 | OCCn1cc(CN2CCN(CCOc3cccc(F)c3)CC2)cn1 | 1.71
113 | CC(=O)NCc1cc2n(n1)CCN(Cc1cc(-c3ccccc3)no1)C2 | -18.6
